Assay results from US20070104785A1, “TABLETS OF LINEZOLID FORM III AND PROCESSES FOR THEIR PREPARATION” (priority 2005, published 2007).

Experiment: Gelling tendency when the solid dosage form contacts water
Type: physicochemical
Settings: in words
Source text: Linezolid Form I is known from the publication, Brickner S J et al. (J. Med. Chem. 39 (3), 673-679, 1996). U.S. Pat. No. 6,559,305 discloses linezolid Form II. Tablets containing linezolid Form II are known from U.S. Pat. No. 6,514,529. The PCT application WO 05035530 discloses crystalline Form III of linezolid. […]. The gel formation leads to an erratic dissolution of the linezolid from the dosage form. A dosage form should deliver a drug in a reproducible way so that a maximum therapeutic effect can be achieved. An unpredictable release from the dosage form can compromise efficacy. The gelling tendency of linezolid Form III would discourage its formulation into solid dosage forms.
Without wishing to be bound by any theory, the following explanation is given for mechanisms involved with the solid dosage form of the present invention that provide a reproducible dissolution profile. […]. When linezolid Form III crystal comes in contact with water, the surface of the crystal dissolves and the dissolved linezolid Form III instead of spreading in water tends to stick to the crystal surface to form a gel layer around the crystal. The gel formation around the crystal acts as a barrier impeding further contact with water, which in turn retards the solubilization of linezolid Form III. […]

CC(=O)NC[C@H]1CN(c2ccc(N3CCOCC3)c(F)c2)C(=O)O1 [Linezolid Form III, (S)—N—[[3-[3-Fluoro-4-(4-morpholinyl)phenyl]-2-oxo-5-oxazolidinyl]methyl]-acetamide]
gelling tendency in contact with water: exhibits a gelling tendency
